Laboratory results taken from patent publication US12617779B2, “Self degradation-type CDK9 inhibitor prodrug and liposome encapsulating same” (Sumitomo Pharma Co., Ltd., priority 2021, dated 2026).

Experiment: Evaluation of conversion rate to active form in buffer solution (Experimental Example 1)
Format: physicochemical
Conditions: for Production rate of Alvocidib / Residual rate / Efficiency of conversion to Alvocidib: 37° C.; for Production rate of Alvocidib / Residual rate: 25 umol/L in buffer solution; for Stability in buffer solution at pH 5: pH 5, 37° C., up to 2 or 3 hours; for Conversion to Alvocidib at pH 7.4: pH 7.4, 37° C., up to 3 hours; for Efficiency of conversion to Alvocidib: buffer solution
In short: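 25 umol/L cpd, 37° C; 50 mM citrate pH 5.0/5.5, 50 mM phosphate pH 6.0/6.5/7.0/7.4. HPLC at 0–3 h: residual rate and Alvocidib production rate.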

CN1CC[C@H](c2c(OC(=O)N(C)CC3CCCCN3)cc(O)c3c(=O)cc(-c4ccccc4Cl)oc23)[C@H](O)C1 (stereo partly drawn) [Example 8, 2-(2-chlorophenyl)-5-hydroxy-8-[(3S,4R)-3-hydroxy-1-methylpiperidin-4-yl]-4-oxo-4H-1-benzopyran-7-yl methyl[(piperidin-2-yl)methyl]carbamate]
Production rate of Alvocidib (pH5.0, 0 hr): 0.7%
Residual rate (pH5.0, 0 hr): 95.4%
Stability in buffer solution at pH 5: stable
Production rate of Alvocidib (pH5.0, 0.5 hr): 1.2%
Residual rate (pH5.0, 0.5 hr): 95.1%
Production rate of Alvocidib (pH5.0, 1 hr): 1.6%
Residual rate (pH5.0, 1 hr): 95.0%
Production rate of Alvocidib (pH5.0, 2 hr): 2.0%
Residual rate (pH5.0, 2 hr): 94.7%
Production rate of Alvocidib (pH5.5, 0 hr): 0.5%
Residual rate (pH5.5, 0 hr): 95.9%
Production rate of Alvocidib (pH5.5, 0.5 hr): 1.6%
Residual rate (pH5.5, 0.5 hr): 95.0%
Production rate of Alvocidib (pH5.5, 1 hr): 2.5%
Residual rate (pH5.5, 1 hr): 94.3%
Production rate of Alvocidib (pH5.5, 2 hr): 3.5%
Residual rate (pH5.5, 2 hr): 93.4%
Production rate of Alvocidib (pH6.0, 0 hr): 0.8%
Residual rate (pH6.0, 0 hr): 95.7%
Production rate of Alvocidib (pH6.0, 0.5 hr): 4.4%
Residual rate (pH6.0, 0.5 hr): 92.1%
Production rate of Alvocidib (pH6.0, 1 hr): 7.3%
Residual rate (pH6.0, 1 hr): 89.4%
Production rate of Alvocidib (pH6.0, 2 hr): 10.3%
Residual rate (pH6.0, 2 hr): 86.5%
Production rate of Alvocidib (pH6.5, 0 hr): 1.5%
Residual rate (pH6.5, 0 hr): 95.0%
Production rate of Alvocidib (pH6.5, 0.5 hr): 11.2%
Residual rate (pH6.5, 0.5 hr): 85.3%
Production rate of Alvocidib (pH6.5, 1 hr): 18.9%
Residual rate (pH6.5, 1 hr): 77.7%
Production rate of Alvocidib (pH6.5, 2 hr): 25.6%
Residual rate (pH6.5, 2 hr): 71.2%
Production rate of Alvocidib (pH7.0, 0 hr): 4.0%
Residual rate (pH7.0, 0 hr): 92.5%
Production rate of Alvocidib (pH7.0, 0.5 hr): 27.3%
Residual rate (pH7.0, 0.5 hr): 69.3%
Production rate of Alvocidib (pH7.0, 1 hr): 40.0%
Residual rate (pH7.0, 1 hr): 56.7%
Production rate of Alvocidib (pH7.0, 2 hr): 48.2%
Residual rate (pH7.0, 2 hr): 49.0%
Production rate of Alvocidib (pH7.4, 0 hr): 9.7%
Residual rate (pH7.4, 0 hr): 86.7%
Conversion to Alvocidib at pH 7.4: rapidly converted to Alvocidib
Production rate of Alvocidib (pH7.4, 0.5 hr): 45.1%
Residual rate (pH7.4, 0.5 hr): 51.4%
Production rate of Alvocidib (pH7.4, 1 hr): 55.2%
Residual rate (pH7.4, 1 hr): 41.7%
Production rate of Alvocidib (pH7.4, 2 hr): 58.2%
Residual rate (pH7.4, 2 hr): 38.4%

CCCN(CC1CCCCN1)C(=O)Oc1cc(O)c2c(=O)cc(-c3ccccc3Cl)oc2c1[C@H]1CCN(C)C[C@H]1O (stereo partly drawn) [Example 9, 2-(2-chlorophenyl)-5-hydroxy-8-[(3S,4R)-3-hydroxy-1-methylpiperidin-4-yl]-4-oxo-4H-1-benzopyran-7-yl [(piperidin-2-yl)methyl]propylcarbamate]
Efficiency of conversion to Alvocidib: higher efficiency
Production rate of Alvocidib (pH5.0, 0 hr): 1.4%
Residual rate (pH5.0, 0 hr): 96.2%
Stability in buffer solution at pH 5: stable
Production rate of Alvocidib (pH5.0, 0.5 hr): 1.7%
Residual rate (pH5.0, 0.5 hr): 95.9%
Production rate of Alvocidib (pH5.0, 1 hr): 2.1%
Residual rate (pH5.0, 1 hr): 95.6%
Production rate of Alvocidib (pH5.0, 2 hr): 2.8%
Residual rate (pH5.0, 2 hr): 94.9%
Production rate of Alvocidib (pH5.0, 3 hr): 3.6%
Residual rate (pH5.0, 3 hr): 94.0%
Production rate of Alvocidib (pH5.5, 0 hr): 1.4%
Residual rate (pH5.5, 0 hr): 96.2%
Production rate of Alvocidib (pH5.5, 0.5 hr): 2.4%
Residual rate (pH5.5, 0.5 hr): 95.2%
Production rate of Alvocidib (pH5.5, 1 hr): 3.4%
Residual rate (pH5.5, 1 hr): 94.4%
Production rate of Alvocidib (pH5.5, 2 hr): 5.2%
Residual rate (pH5.5, 2 hr): 92.5%
Production rate of Alvocidib (pH5.5, 3 hr): 7.2%
Residual rate (pH5.5, 3 hr): 90.5%
Production rate of Alvocidib (pH6.0, 0 hr): 1.5%
Residual rate (pH6.0, 0 hr): 96.2%
Production rate of Alvocidib (pH6.0, 0.5 hr): 4.9%
Residual rate (pH6.0, 0.5 hr): 92.9%
Production rate of Alvocidib (pH6.0, 1 hr): 8.2%
Residual rate (pH6.0, 1 hr): 89.5%
Production rate of Alvocidib (pH6.0, 2 hr): 14.4%
Residual rate (pH6.0, 2 hr): 83.0%
Production rate of Alvocidib (pH6.0, 3 hr): 20.8%
Residual rate (pH6.0, 3 hr): 76.6%
Production rate of Alvocidib (pH6.5, 0 hr): 1.7%
Residual rate (pH6.5, 0 hr): 95.9%
Production rate of Alvocidib (pH6.5, 0.5 hr): 11.2%
Residual rate (pH6.5, 0.5 hr): 86.4%
Production rate of Alvocidib (pH6.5, 1 hr): 20.2%
Residual rate (pH6.5, 1 hr): 77.3%
Production rate of Alvocidib (pH6.5, 2 hr): 35.4%
Residual rate (pH6.5, 2 hr): 61.9%
Production rate of Alvocidib (pH6.5, 3 hr): 49.0%
Residual rate (pH6.5, 3 hr): 48.4%
Production rate of Alvocidib (pH7.0, 0 hr): 2.2%
Residual rate (pH7.0, 0 hr): 95.4%
Production rate of Alvocidib (pH7.0, 0.5 hr): 24.1%
Residual rate (pH7.0, 0.5 hr): 73.1%
Production rate of Alvocidib (pH7.0, 1 hr): 42.0%
Residual rate (pH7.0, 1 hr): 55.1%
Production rate of Alvocidib (pH7.0, 2 hr): 66.1%
Residual rate (pH7.0, 2 hr): 31.0%
Production rate of Alvocidib (pH7.0, 3 hr): 81.0%
Residual rate (pH7.0, 3 hr): 16.7%
Production rate of Alvocidib (pH7.4, 0 hr): 3.4%
Residual rate (pH7.4, 0 hr): 94.3%
Conversion to Alvocidib at pH 7.4: rapidly converted to Alvocidib
Production rate of Alvocidib (pH7.4, 0.5 hr): 48.7%
Residual rate (pH7.4, 0.5 hr): 48.7%
Production rate of Alvocidib (pH7.4, 1 hr): 73.6%
Residual rate (pH7.4, 1 hr): 23.7%
Production rate of Alvocidib (pH7.4, 2 hr): 92.4%
Residual rate (pH7.4, 2 hr): 5.6%
Production rate of Alvocidib (pH7.4, 3 hr): 96.7%
Residual rate (pH7.4, 3 hr): 1.1%

CC(C)N(CC1CCCCN1)C(=O)Oc1cc(O)c2c(=O)cc(-c3ccccc3Cl)oc2c1[C@H]1CCN(C)C[C@H]1O (stereo partly drawn) [Example 10, 2-(2-chlorophenyl)-5-hydroxy-8-[(3S,4R)-3-hydroxy-1-methylpiperidin-4-yl]-4-oxo-4H-1-benzopyran-7-yl [(piperidin-2-yl)methyl]propan-2-ylcarbamate]
Efficiency of conversion to Alvocidib: higher efficiency
Production rate of Alvocidib (pH5.0, 0 hr): 1.6%
Residual rate (pH5.0, 0 hr): 90.6%
Stability in buffer solution at pH 5: stable
Production rate of Alvocidib (pH5.0, 0.5 hr): 2.1%
Residual rate (pH5.0, 0.5 hr): 90.4%
Production rate of Alvocidib (pH5.0, 1 hr): 2.5%
Residual rate (pH5.0, 1 hr): 90.8%
Production rate of Alvocidib (pH5.0, 2 hr): 3.1%
Residual rate (pH5.0, 2 hr): 90.1%
Production rate of Alvocidib (pH5.0, 3 hr): 3.9%
Residual rate (pH5.0, 3 hr): 89.5%
Production rate of Alvocidib (pH5.5, 0 hr): 1.6%
Residual rate (pH5.5, 0 hr): 90.7%
Production rate of Alvocidib (pH5.5, 0.5 hr): 2.7%
Residual rate (pH5.5, 0.5 hr): 90.4%
Production rate of Alvocidib (pH5.5, 1 hr): 3.6%
Residual rate (pH5.5, 1 hr): 89.5%
Production rate of Alvocidib (pH5.5, 2 hr): 5.4%
Residual rate (pH5.5, 2 hr): 87.9%
Production rate of Alvocidib (pH5.5, 3 hr): 7.2%
Residual rate (pH5.5, 3 hr): 86.3%
Production rate of Alvocidib (pH6.0, 0 hr): 1.7%
Residual rate (pH6.0, 0 hr): 90.7%
Production rate of Alvocidib (pH6.0, 0.5 hr): 4.9%
Residual rate (pH6.0, 0.5 hr): 88.2%
Production rate of Alvocidib (pH6.0, 1 hr): 8.1%
Residual rate (pH6.0, 1 hr): 85.2%
Production rate of Alvocidib (pH6.0, 2 hr): 14.1%
Residual rate (pH6.0, 2 hr): 79.4%
Production rate of Alvocidib (pH6.0, 3 hr): 19.8%
Residual rate (pH6.0, 3 hr): 74.1%
Production rate of Alvocidib (pH6.5, 0 hr): 1.9%
Residual rate (pH6.5, 0 hr): 91.3%
Production rate of Alvocidib (pH6.5, 0.5 hr): 10.8%
Residual rate (pH6.5, 0.5 hr): 82.4%
Production rate of Alvocidib (pH6.5, 1 hr): 19.4%
Residual rate (pH6.5, 1 hr): 73.9%
Production rate of Alvocidib (pH6.5, 2 hr): 34.6%
Residual rate (pH6.5, 2 hr): 59.6%
Production rate of Alvocidib (pH6.5, 3 hr): 46.2%
Residual rate (pH6.5, 3 hr): 47.1%
Production rate of Alvocidib (pH7.0, 0 hr): 2.2%
Residual rate (pH7.0, 0 hr): 90.7%
Production rate of Alvocidib (pH7.0, 0.5 hr): 22.8%
Residual rate (pH7.0, 0.5 hr): 70.0%
Production rate of Alvocidib (pH7.0, 1 hr): 40.0%
Residual rate (pH7.0, 1 hr): 52.8%
Production rate of Alvocidib (pH7.0, 2 hr): 63.6%
Residual rate (pH7.0, 2 hr): 29.6%
Production rate of Alvocidib (pH7.0, 3 hr): 76.4%
Residual rate (pH7.0, 3 hr): 0.8%
Production rate of Alvocidib (pH7.4, 0 hr): 3.1%
Residual rate (pH7.4, 0 hr): 89.9%
Conversion to Alvocidib at pH 7.4: rapidly converted to Alvocidib
Production rate of Alvocidib (pH7.4, 0.5 hr): 46.1%
Residual rate (pH7.4, 0.5 hr): 46.5%
Production rate of Alvocidib (pH7.4, 1 hr): 71.5%
Residual rate (pH7.4, 1 hr): 22.6%
Production rate of Alvocidib (pH7.4, 2 hr): 87.2%
Residual rate (pH7.4, 2 hr): 0.9%
Production rate of Alvocidib (pH7.4, 3 hr): 91.6%
Residual rate (pH7.4, 3 hr): 0.8%
